# Read-outs that look alike come from different tables or passages of the source.
# Experiments:
# [1] = forced swim and/or tail suspension tests (overall conclusion); type: in vivo, mice
# Experimental: (§1) Certain exemplary compounds encompassed hereby were evaluated pharmacologically in mice using the forced swim (8) and/or tail suspension (9) tests. These tests were initially designed to detect potential antidepressant agents (13, 14) based on the abilities of clinically effective antidepressants to reduce the immobility that animals typically display after active and unsuccessful escape attempts when subjected to these inescapable stressors. Moreover, the predictive validity (15) and pharmacological specificity (13, 14) of these tests has led to the proposal that they represent animal models of depression. (16)
# NMDA receptor complex = details: cited from earlier work
# [2] = type: in vivo, mice (male NIH/HSD); details: for ACTIVITY (time spent ambulating in an open field): mean ± SEM
# Experimental: Values represent means ± standard error of the mean. The number of animals examined in the forced swim test was: VEH, 40; ACPC 25 mg/kg, 11 and 50-600 mg/kg, 10. In the open field, the number of animals tested was: VEH 23; 50 and 600 mg/kg, 5; and 100-400 mg/kg, 10. Male NIH/HSD mice (25-30 g) were injected i.p. with ACPC dissolved in saline. Controls received an equivalent volume of saline. Fifteen minutes later, mice were placed in a cylinder (diameter: 10 cm; height: 25 cm) filled with 6 cm of water (22°-25° C.) and the duration of immobility during the last four minutes of forced swim was measured as described. (8) The ambulatory time in an open field was measured for five minutes, fifteen minutes after injection of ACPC as described in Table 1.
# (§2) Glycine (800 mg/kg) or an equivalent volume of saline was administered intraperitoneally to NIH/HSD mice 45 minutes prior to ACPC (400 mg/kg). Fifteen minutes after ACPC administration, animals were evaluated in the forced swim test or in an open field as described in Table 1. This dose of glycine was selected based on a previous report (40), showing that parenteral administration of large doses is required to elevate cerebral levels of glycine. […] Amino acid levels were determined using HPLC/EC with an isocratic separation method and pre-column amino acid derivatization with o-pthalaldehyde and β-mercaptoethano (41).
# [3] = forced swim test, duration of immobility during last 4 minutes of 6 minute swim; type: in vivo, mice (male NIH/HSD); details: for IMMOBILITY %: change versus control; for minimal effective dose: Mus musculus, read-out: minimum effective dose, swim-induced immobility
# Experimental: as §1
# The duration of immobility was measured during the […]
# Values represent means ± standard error of the mean. The number of animals examined in the forced swim test was: VEH, 40; ACPC 25 mg/kg, 11 and 50-600 mg/kg, 10. In the open field, the number of animals tested was: VEH 23; 50 and 600 mg/kg, 5; and 100-400 mg/kg, 10. Male NIH/HSD mice (25-30 g) were injected i.p. with ACPC dissolved in saline. Controls received an equivalent volume of saline. […] (8) The ambulatory time in an open field was measured for five minutes, fifteen minutes after injection of ACPC as described in Table 1.
# as §2
# [4] = behavioral effects and lethality observed in connection with forced swim; details: for behavioral effects prior to forced swim: I2CA 25-200, HA-966 2.5-10, ACBC 50-100 mg/kg; for lethality combined with forced swim: I2CA 25-200, HA-966 2.5-10 mg/kg
# Experimental: (§3) Inset: Effects of ACPC on tail suspension-induced immobility. Values are mean standard error of immobility (sec.) during a 6 minute test. The number of animals used in this test was: VEH, 16; ACPC, 200 mg/kg, 6; 300 mg/kg, 9 and 400 mg/kg, 7. Male C57Bl/6J mice [20-25 g](Jackson Laboratories, Bar Harbor, ME) were injected with ACPC. Fifteen minutes later, mice were suspended by the tail and the duration of immobility measured as described. […] 7-chlorokynurenic acid (25-150 mg/kg), indole2-carboxylic acid (I2CA) (25-200 mg/kg), 3-amino-1-hydroxypyrrolidone (HA-966) (2.5-10 mg/kg), cycloleucine (100-400 mg/kg) and 1-aminocyclobutanecarboxylic acid (ACBC) (50-100 mg/kg) were tested under identical conditions to those employed for the other agents (Table 1 and FIG. 1).
# [5] = biological target: strychnine sensitive glycine receptors; details: cited from earlier work
# [6] = ambulatory time in the open field (tail suspension study); type: in vivo, C57Bl/6J mice; details: 400 mg/kg
# [7] = test system: NMDA-gated cation channel; details: compared with glycine; cited from earlier work
# [8] = cited from earlier work
# [9] = tail suspension test, duration of immobility; type: in vivo, mice (male C57Bl/6J); details: 200-400 mg/kg, 15 min before test; F(2,31)=29, p<0.0001
# Experimental: as §3
# [10] = cited from earlier work; remark: listed apart in the source
# [11] = biological target: strychnine-insensitive glycine receptors; details: cited from earlier work
# [12] = type: in vivo, mice (male NIH/HSD); details: for ACTIVITY (time spent ambulating in an open field): 30 min before test, mean ± SEM
# [13] = 60 min after 800 mg/kg i.p.; data not shown
# Experimental: as §2
# [14] = 0.1 mg/kg i.p., 15 min before test
# [15] = 0.5 mg/kg i.p., 15 min before test
# [16] = 1 mg/kg i.p., 15 min before test
# [17] = 7-chlorokynurenic acid 25-150, I2CA 25-200, HA-966 2.5-10, cycloleucine 100-400, ACBC 50-100 mg/kg
smiles,measurement,setting,value
"C[C@]12N[C@H](Cc3ccccc31)c1ccccc12 (racemic) [MK-801, (+)-5-methyl-10,11-dihydro-5H-dibenzo[a,d]cycloheptene-5, 10-imine]",activity in the antidepressant models,[1],mimic clinically effective antidepressants in these models
same,activity at the NMDA receptor complex,NMDA receptor complex,non-competitive NMDA antagonist
same,ACTIVITY (time spent ambulating in an open field),[2]; [14],144 ± 4 s
same,increase in ambulatory time in an open field,[2]; 0.5 mg/kg,34%
same,ACTIVITY %,"[2]; 0.5 mg/kg i.p., 15 min before test, change versus control",+34%
same,ACTIVITY (time spent ambulating in an open field),[2]; [15],201 ± 3 s
same,ACTIVITY (time spent ambulating in an open field),[2]; [16],170 ± 14 s
same,effect on ambulatory time,[2]; 0.1 and 1 mg/kg,did not alter ambulatory time
same,IMMOBILITY %,[3]; [14],-43%
same,IMMOBILITY,"[3]; 0.1 mg/kg i.p., 15 min before test, mean ± SEM",80 ± 10 s
same,maximum reduction of duration of immobility,[3]; 0.5 mg/kg,92%
same,IMMOBILITY %,[3]; [15],-92%
same,IMMOBILITY,"[3]; 0.5 mg/kg i.p., 15 min before test, mean ± SEM",11 ± 4 s
same,IMMOBILITY %,[3]; [16],-54%
same,IMMOBILITY,"[3]; 1 mg/kg i.p., 15 min before test, mean ± SEM",64 ± 23 s
same,reduction of duration of immobility,[3]; 0.1 and 1 mg/kg,43-54%
same,effect on duration of immobility in the forced swim test,"[3]; biphasic, doses of Table 1",reduced significantly the duration of immobility
O=C(O)c1cc(O)c2ccc(Cl)cc2n1 [7-chlorokynurenic acid],effect on immobility in the forced swim test,[3]; [17],did not reduce immobility in the forced swim test
"NC1(C(=O)O)CCC1 [ACBC, 1-aminocyclobutanecarboxylic acid]",behavioral effects prior to forced swim,[4],"marked behavioral effects, including ataxia"
same,effect on immobility in the forced swim test,[3]; [17],did not reduce immobility in the forced swim test
"NC1(C(=O)O)CC1 [ACPC, 1-aminocyclopropanecarboxylic acid]",IC50,[5],> 1000 µM
same,increase in ambulatory time in the open field,[6],18%
same,activity in the antidepressant models,[1],mimic clinically effective antidepressants in these models
same,efficacy in stimulating [3H]MK-801 binding,[7],significantly less efficacious than glycine
same,anticonflict actions in animal models,[8],possesses anticonflict actions in animal models
same,effect on immobility in the tail suspension test,[9],reduction in immobility
same,muscle relaxation or ataxia,[10],do not produce the muscle relaxation or ataxia
same,increase in ambulatory time,"[2]; 600 mg/kg, F(5,60)=10, p<0.0001",29%
same,effect of glycine on the locomotor effects of ACPC in the open field,[2]; glycine 800 mg/kg i.p. 45 min prior to ACPC 400 mg/kg,partial antagonism
same,Ki,[11],~0.032 µM
same,activity at the strychnine-insensitive glycine binding site,[11],potent and selective partial agonist
same,minimal effective dose,[3],100 mg/kg
same,effect of glycine on the action of ACPC in the forced swim test,"[3]; mouse, in vivo",completely abolished
same,effect on immobility in the forced swim test,"[3]; mouse, in vivo",reduced immobility in the forced swim test in a dosedependent fashion
same,maximum reduction of immobility in the forced swim test,"[3]; mouse, in vivo",65%
same,further effect on immobility at higher doses,"[3]; mouse, in vivo, 200 mg/kg",no further reductions in immobility
"COC(=O)C1(N)CC1 [ACPCM, methyl 1-aminocyclopropanecarboxylate]",minimal effective dose,[3]; Table 2,50 mg/kg
same,IMMOBILITY,"[3]; Table 2, 25 mg/kg",126 ± 8 s
same,IMMOBILITY %,"[3]; Table 2, 25 mg/kg",-8%
same,IMMOBILITY,"[3]; Table 2, 50 mg/kg",89 ± 17 s
same,IMMOBILITY %,"[3]; Table 2, 50 mg/kg",-35%
same,IMMOBILITY,"[3]; Table 2, 100 mg/kg",40 ± 18 s
same,IMMOBILITY %,"[3]; Table 2, 100 mg/kg",-71%
same,IMMOBILITY,"[3]; Table 2, 150 mg/kg",69 ± 10 s
same,IMMOBILITY %,"[3]; Table 2, 150 mg/kg",-50%
"NC(CCCCCP(=O)(O)O)C(=O)O (stereo not drawn) [AP-7, 2-amino-7-phosphonoheptanoic acid]",activity in the antidepressant models,[1],mimic clinically effective antidepressants in these models
same,activity at the NMDA receptor complex,NMDA receptor complex,competitive antagonist
same,ACTIVITY (time spent ambulating in an open field),[12]; 40 mg/kg i.p.,144 ± 5 s
same,ACTIVITY (time spent ambulating in an open field),[12]; 80 mg/kg i.p.,167 ± 16 s
same,ACTIVITY (time spent ambulating in an open field),[12]; 100 mg/kg i.p.,153 ± 5 s
same,ACTIVITY (time spent ambulating in an open field),[12]; 200 mg/kg i.p.,134 ± 10 s
same,effect on ambulatory time in an open field,[2]; doses of Table 1,without affecting ambulatory time
same,IMMOBILITY,"[3]; 40 mg/kg i.p., 30 min before test, mean ± SEM",141 ± 21 s
same,IMMOBILITY,"[3]; 80 mg/kg i.p., 30 min before test, mean ± SEM",153 ± 9 s
same,IMMOBILITY %,"[3]; 100 mg/kg i.p., 30 min before test",-35%
same,IMMOBILITY,"[3]; 100 mg/kg i.p., 30 min before test, mean ± SEM",93 ± 8 s
same,IMMOBILITY %,"[3]; 200 mg/kg i.p., 30 min before test",-62%
same,IMMOBILITY,"[3]; 200 mg/kg i.p., 30 min before test, mean ± SEM",55 ± 13 s
same,effect on duration of immobility in the forced swim test,"[3]; F(4,71) = 17, p<0.0001","significant, dose dependent reduction in the duration of immobility"
"NC1CCN(O)C1=O (stereo not drawn) [HA-966, 3-amino-1-hydroxypyrrolidone]",lethality combined with forced swim,[4],lethal when combined with forced swim
same,behavioral effects prior to forced swim,[4],"marked behavioral effects, including ataxia"
same,effect on immobility in the forced swim test,[3]; [17],did not reduce immobility in the forced swim test
"O=C(O)c1cc2ccccc2[nH]1 [I2CA, indole2-carboxylic acid]",lethality combined with forced swim,[4],lethal when combined with forced swim
same,behavioral effects prior to forced swim,[4],"marked behavioral effects, including ataxia"
same,effect on immobility in the forced swim test,[3]; [17],did not reduce immobility in the forced swim test
NC1(C(=O)O)CCCC1 [cycloleucine],effect on immobility in the forced swim test,[3]; [17],did not reduce immobility in the forced swim test
NCC(=O)O [glycine],"concentrations of other amino acids (glutamate, serine, taurine, GABA, alanine) in the hippocampus",[13],unchanged
same,intrinsic activity in the open field,"[12]; mouse, in vivo",devoid of intrinsic activity
same,intrinsic activity in the forced swim test,"[3]; mouse, in vivo",devoid of intrinsic activity
